In patent publication US20250262167A1, “COMPOUNDS, TARGETS AND PATHWAYS FOR MACROPHAGE MODULATION” (Massachusetts Institute of Technology, priority 2020, published 2025):
Counter-ions that a name gives are not always drawn.

Experiments:
[1] = tested on: hMDMs differentiated into M1 by IFNγ plus TNFα; assay: Reprogramming screen and dosage response on M1-like differentiated macrophages; format: cell-based, human; settings: for EC (M2 Z-score cutoff): M2-activating compounds on M1-like macrophages (IFNγ plus TNFα), EC = concentration reaching Z-score cutoff; for Category: differentiated macrophages
Description: Data were summarized from 3 independent experiments.
(§1) Human macrophages were seeded into optical 384-well plates. Sixteen hours later, medium in M1 plates were replaced by M1 differentiating medium (complete RPMI with 50 ng/mL IFNγ and 50 ng/mL TNFα) and medium in M2 plates by M2 differentiating medium (complete RPMI with 5 ng/mL IL-4 and 5 ng/mL IL-13). After 24 hrs cell differentiation, M1 plates (M1 macrophages) and M2 plates (M2 macrophages) were treated with M2-activating compounds and M1-activating compounds respectively for 24 hrs. Two independent experiments were performed with or without replacing differentiating medium right before treatment. Cell imaging and analysis were performed as indicated above.
To investigate whether the identified compounds could reprogram or reactivate macrophages after M1- or M2-like differentiation, we rescreened the hits on M1- or M2-activated macrophages. hMDMs were activated into M2-like macrophages by IL-4 plus IL-13 or M1-like macrophages by IFNγ plus TNFα. […] 24 hours later, cell images were taken and cell shapes were quantified.
(§2) We also rescreened the hits on differentiated macrophages in the presence of differentiating cytokines: either IL-4 plus IL-13 or IFNγ plus TNFα.

[2] = tested on: hMDMs differentiated into M2 by IL-4 plus IL-13; assay: Reprogramming screen and dosage response on M2-like differentiated macrophages; settings: for EC (M1 Z-score cutoff): Homo sapiens, Macrophage, 24 h, read-out: EC; for EC: M1-activating compounds on M2-like macrophages (IL-4 plus IL-13), EC = concentration reaching Z-score cutoff; for Category: differentiated macrophages;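 on all read-outs here: human monocyte-derived macrophages held 24 h in 5 ng/mL IL-4 plus IL-13 before 24 h compound exposure, with cell shape measured from images in 384-well plates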
Description: Shown are comparison of Z-scores between 5 μM or 10 μM of compounds. […] Shown are comparison of Z-scores between 5 μM or 10 μM of compounds. […] EC and fitness of 21 M1-polarizing (triangle) and 19 M2-polarizing compounds (circle) were calculated by the Michaelis-Menten equation and plotted. Data were summarized from 3 independent experiments.
as §1
To investigate whether the identified compounds could reprogram or reactivate macrophages after M1- or M2-like differentiation, we rescreened the hits on M1- or M2-activated macrophages. hMDMs were activated into M2-like macrophages by IL-4 plus IL-13 or M1-like macrophages by IFNγ plus TNFα. After removing the differentiating cytokines, M2-like macrophages were treated with each of the 166 M1-activating compounds and M1-like macrophages were treated with each of the 180 M2-activating compounds at a final concentration of either 5 μM and 10 μM. 24 hours later, cell images were taken and cell shapes were quantified. […] Dosage responses were carried out with 40 commercial available compounds (21 M1-activating and 19 M2-activating) on polarized macrophages.
as §2

[3] = tested on: hMDMs; assay: RNA-seq transcriptional response of hMDMs (GSEA, GO enrichment); format: cell-based, human; settings: for macrophage phenotype at transcriptional and translational level: human macrophages
Description: Duplicate hMDM samples were treated with 2 M2-activating and 6 M1-activating compounds as well as IL-4 and IFNγ for 24 hrs. Gene expression levels were measured by RNA-seq separately. GSEA preranked analysis was performed based on the whole genome gene list ranked on gene expression changes using a gene set of 49 transcriptional modules in response to 29 stimuli in hMDMs. bosut.: bosutinib; alster.: alsterpaullone; mocet.: mocetinostat; thios.: thiostrepton; niclo.: niclosamide; chlor.: chlorhexidine; fenb.: fenbendazole; fluvo.: fluvoxamine. […] Duplicate hMDM samples were stimulated with each ligand and analyzed by RNA-seq separately.
DEGs were identified by edgeR at P<0.05 with at least 2 fold-change.
RNAs were extracted with RNeasy MiniElute kit (Qiagen), converted into cDNA and sequenced using Next-Generation Sequencing (Illumina). […] Differential expression analysis was performed using the program edgeR at P<0.05 with a 2 fold-change. The gene expression level across different samples was normalized and quantified using the function of cpm. Differentially expressed genes were annotated using online functional enrichment analysis tool DAVID (http://david.ncifcrf.gov/). Gene set enrichment analysis were performed with GSEA with FDR q-value<0.05.
Fresh hMDMs were treated with compounds at the EC for 24 hours, followed by RNA-seq.

[4] = tested on: human monocyte-derived macrophages (hMDMs); assay: High throughput phenotypic screen of macrophage activation (cell shape, Z-score); format: cell-based; design: key to Average Z-value: Z-score vs DMSO; negative = round cells, positive = elongated; settings: for activation state induced in the screen: compounds regulating actin-cytoskeleton;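 on all read-outs here: phalloidin and DAPI stained hMDMs imaged by high-content microscopy, cell eccentricity compared with DMSO control by T-test, round morphology scored negative, elongated positive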
[5] = tested on: M0 macrophages (hMDMs); assay: Dosage response of cell shape change on M0 macrophages; format: cell-based, human; settings: M0 macrophages

For `CC(C)(C)n1nc(-c2cccc3ccccc23)c2c(N)ncnc21` [1-Naphthyl PP1], the EC (M2 Z-score cutoff) [1] was 2.072 µM and the Category [1] was “M2 (6 for M2-activated macrophages)”.
With `COC(=O)Nc1nc2ccc(Sc3ccccc3)cc2[nH]1` [Fenbendazole] the EC (M1 Z-score cutoff) [2] was 0.649 µM, the “macrophage phenotype at transcriptional and translational level” value [3] was “activated macrophages toward M1-like phenotype” and the “activation state induced in the screen” value [4] was “M1-activating”.
For `NCCc1c[nH]c2ccc(O)cc12` [5HT, serotonin], the “gene expression of TPP modules (#30, #32)” value ([3]; hMDMs, 24 hrs, GSEA) was “down-regulated” and the “gene expression of typical M1 modules (#7, #8)” value ([3]; hMDMs, 24 hrs, GSEA) was “up-regulated”.
Work on `OC1(c2ccc(Cl)c(C(F)(F)F)c2)CCN(CCCC(c2ccc(F)cc2)c2ccc(F)cc2)CC1` [Penfluridol] yielded an EC (M1 Z-score cutoff) [2] of 0.169 µM.
For `COCCNCc1ccc(-c2cc3nccc(Oc4ccc(NC(=S)NC(=O)Cc5ccc(F)cc5)cc4F)c3s2)nc1` [MGCD-265], the EC (M2 Z-score cutoff) ([1]; Homo sapiens, Macrophage, 24 h) was 0.911 µM.
In the case of `O=C(c1ccc(/C=C/c2n[nH]c3ccccc23)cc1)N1CCNCC1` [KW 2449], the EC (M2 Z-score cutoff) ([1]; Homo sapiens, Macrophage, 24 h) is reported as 2.16 µM.
Evodiamine was tested, and the EC [2] was 0.6799 µM.
With `O=C(Nc1nc2ccc(NC(=O)C34CC5CC(CC(C5)C3)C4)cc2s1)c1ccccc1` [NVP 231] the EC [2] was 5.745 µM, the Category [2] was “M1 (−4 for M1-activated macrophages)” and the “Average Z-value” ([4]; cell shape Z-score of hMDMs treated with compound at 20 µM for 24 hours, averaged over the compounds listed for the WikiPathways pathway, negative = M1-like, positive = M2-like) was −4.79. For the same compound, the Category [5] was “M1 (−4 for M1-activated macrophages)”, the EC ([5]; EC = concentration inducing cell morphology changes to reach the M1 or M2 Z-score cutoff, Michaelis-Menten fit, 3 independent experiments, unit of the source corrected) was 2.25 µM and the “Max absolute Z-value” ([5]; Max Z-score from Michaelis-Menten equation, negative = round, positive = elongated) was −22.37.
With `CC(=O)O[C@H]1C(=O)[C@@]2(C)[C@H]([C@H](OC(=O)c3ccccc3)[C@]3(O)C[C@H](OC(=O)[C@H](O)[C@@H](NC(=O)c4ccccc4)c4ccccc4)C(C)=C1C3(C)C)[C@]1(OC(C)=O)CO[C@@H]1C[C@@H]2O` [Taxol] the EC (M1 Z-score cutoff) [2] was 0.129 µM, the “macrophage phenotype at transcriptional and translational level” value [3] was “activated macrophages toward M1-like phenotype” and the “activation state induced in the screen” value [4] was “M1-activating”.
`CO[C@H]1C[C@H](O[C@@H]2/C(C)=C/C[C@@H]3C[C@@H](C[C@]4(CC[C@H](C)[C@@H](C5CCCCC5)O4)O3)OC(=O)[C@@H]3C=C(C)/C(=N/O)[C@H]4OC/C(=C\C=C\[C@@H]2C)[C@]43O)O[C@@H](C)[C@@H]1O` [SELAMECTIN] was tested, and the EC (M2 Z-score cutoff) ([1]; Homo sapiens, Macrophage, 24 h) was 15 µM.
For `C[C@@]12C(=O)OC(=O)[C@]1(C)[C@H]1CC[C@@H]2O1` [Cantharidin], the EC (M1 Z-score cutoff) [2] was 0.159 µM.
With `O=C1c2ccccc2-c2nc3nonc3nc21` [SMER3] the EC [2] was 0.09398 µM and the Category [2] was “M1 (−4 for M1-activated macrophages)”.
Work on `CNC(=O)c1cc(Oc2ccc(NC(=O)Nc3ccc(Cl)c(C(F)(F)F)c3)c(F)c2)ccn1` [Regorafenib] yielded an EC (M2 Z-score cutoff) ([1]; Homo sapiens, Macrophage, 24 h) of 2.88 µM.
For `CCC[C@H](NC(=O)/C(C#N)=C/c1cccc(Br)n1)c1ccccc1` [WP1130], the EC [2] was 15 µM and the Category [2] was “M1 (−4 for M1-activated macrophages)”.
Compound `CC[C@H](C)C(=O)O[C@H]1C[C@@H](C)C=C2C=C[C@H](C)[C@H](CC[C@@H]3C[C@@H](O)CC(=O)O3)[C@H]21` [lovastatin] has an EC (M2 Z-score cutoff) ([1]; Homo sapiens, Macrophage, 24 h) of 0.442 µM.
`c1ccc2c(Oc3nc(Nc4ccc(N5CCOCC5)cc4)c4ncn(C5CCCCC5)c4n3)cccc2c1` [Purmorphamine] gave an EC (M2 Z-score cutoff) ([1]; Homo sapiens, Macrophage, 24 h) of 2.35 µM.
Work on `COc1cc2ncn(-c3cc(OCc4ccccc4C(F)(F)F)c(C(N)=O)s3)c2cc1OC` [GW-843682X] yielded an EC (M2 Z-score cutoff) ([1]; Homo sapiens, Macrophage, 24 h) of 0.897 µM.
For `O=C1NC(=O)c2c1c1c3ccccc3[nH]c1c1[nH]c3ccccc3c21` [Arcyriaflavin A], the EC (M2 Z-score cutoff) [1] was 1.342 µM and the Category [1] was “M2 (6 for M2-activated macrophages)”.
Work on `O=C1c2c(O)ccc(O)c2C(=O)c2c(NCCNCCO)ccc(NCCNCCO)c21` [MITOXANTRONE HYDROCHLORIDE] yielded an EC (M1 Z-score cutoff) [2] of 0.559 µM.
`O=C(Nc1ccc([N+](=O)[O-])cc1Cl)c1cc(Cl)ccc1O` [Niclosamide] gave an EC (M1 Z-score cutoff) [2] of 1.13 µM.
`COc1ccc(S(=O)(=O)N(C(C)=O)c2ccccc2/C=C/c2cc[n+]([O-])cc2)cc1` [HMN214] was tested, and the EC (M1 Z-score cutoff) [2] was 1.48 µM.
Compound `CNC(=O)c1ccccc1Sc1ccc2c(/C=C/c3ccccn3)n[nH]c2c1` [Axitinib] has an EC (M2 Z-score cutoff) ([1]; Homo sapiens, Macrophage, 24 h) of 0.591 µM.
